The assay addresses PD-1/PD-L1 (Homo sapiens, UniProt Q9NZQ7). Kind of assay: TR-FRET PD-1/PD-L1 binding inhibition at the molecular level (free proteins). The note with it: Tag1-PD-L1 and Tag2-PD-1 proteins, twelve concentrations from 200 nM, 2 hours at room temperature, read-out: FRET assay (IC50). In short, it runs like this:
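HTRF read-out at 665/620 nm after 2 h at room temperature. Detection used anti-Tag1 Eu cryptate plus anti-Tag2 XL665 antibodies. Tagged PD-L1 and PD-1 proteins were pre-mixed with compound across twelve […] 1:2 dilutions starting at 200 nM.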
(TR-FRET usually uses a lanthanide donor and a delayed reading to cut background.)

Each structure is given as a SMILES string.

PD-1/PD-L1, sequence (Q9NZQ7 19-238 limits assumed): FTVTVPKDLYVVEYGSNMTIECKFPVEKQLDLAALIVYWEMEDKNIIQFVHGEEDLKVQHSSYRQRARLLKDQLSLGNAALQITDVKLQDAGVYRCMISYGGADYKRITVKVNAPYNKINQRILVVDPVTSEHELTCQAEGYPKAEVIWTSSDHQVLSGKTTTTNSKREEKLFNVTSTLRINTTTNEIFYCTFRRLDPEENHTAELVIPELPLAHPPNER

Regarding `O=C(Nc1cccc(-c2cccc(NC(=O)c3cc4n(n3)CCCC4N3CC[C@@H](O)C3)c2Cl)c1Cl)c1ccc(CNCCO)cn1` (stereo partly drawn) [Compound 85, N-(2,2'-dichloro-3'-(5-(((2-hydroxyethyl)amino)methyl)picolinamido)-[1,1'-biphenyl]-3-yl)-4-((R)-3-hydroxypyrrolidin-1-yl)-4,5,6,7-tetrahydropyrazolo[1,5-a]pyridine-2-carboxamide], the IC50 was less than 10 nM.

Consider `O=C(Nc1cccc(-c2cccc(NC(=O)c3cc4n(n3)CCCC4N3CC[C@@H](C(=O)O)C3)c2Cl)c1Cl)c1ccc(CNCCO)cn1` (stereo partly drawn) [Compound 86, (3R)-1-(2-((2,2'-dichloro-3'-(5-(((2-hydroxyethyl)amino)methyl)picolinamido)-[1,1'-biphenyl]-3-yl)carbamoyl)-4,5,6,7-tetrahydropyrazolo[1,5-a]pyridin-4-yl)pyrrolidine-3-carboxylic acid], for which the IC50 was less than 10 nM.

In the case of `O=C(Nc1cccc(-c2cccc(NC(=O)c3cc4n(n3)CCCC4N3CCC(O)CC3)c2Cl)c1Cl)c1ccc(CNCCO)cn1` (stereo not shown) [Compound 87, N-(2,2'-dichloro-3'-(5-(((2-hydroxyethyl)amino)methyl)picolinamido)-[1,1'-biphenyl]-3-yl)-4-(4-hydroxypiperidin-1-yl)-4,5,6,7-tetrahydropyrazolo[1,5-a]pyridine-2-carboxamide], the IC50 was 10 to 100 nM.

For `O=C(Nc1cccc(-c2cccc(NC(=O)c3cc4n(n3)CCCC4N3CCC(C(=O)O)CC3)c2Cl)c1Cl)c1ccc(CNCCO)cn1` (stereo not shown) [Compound 88, 1-(2-((2,2'-dichloro-3'-(5-(((2-hydroxyethyl)amino)methyl)picolinamido)-[1,1'-biphenyl]-3-yl)carbamoyl)-4,5,6,7-tetrahydropyrazolo[1,5-a]pyridin-4-yl)piperidine-4-carboxylic acid], the IC50 is less than 10 nM.

`O=C(O)CNC1CCCn2nc(C(=O)Nc3cccc(-c4cccc(NC(=O)c5ccc(CNCCO)cn5)c4Cl)c3Cl)cc21` (stereo not shown) [Compound 89, 2-((2-((2,2'-dichloro-3'-(5-(((2-hydroxyethyl)amino)methyl)picolinamido)-[1,1'-biphenyl]-3-yl)carbamoyl)-4,5,6,7-tetrahydropyrazolo[1,5-a]pyridin-4-yl)amino)acetic acid]: the IC50 is less than 10 nM.

Take `CC(C)(NC1CCCn2nc(C(=O)Nc3cccc(-c4cccc(NC(=O)c5ccc(CNCCO)cn5)c4Cl)c3Cl)cc21)C(=O)O` (stereo not shown) [Compound 90, 2-((2-((2,2'-dichloro-3'-(5-(((2-hydroxyethyl)amino)methyl)picolinamido)-[1,1'-biphenyl]-3-yl)carbamoyl)-4,5,6,7-tetrahydropyrazolo[1,5-a]pyridin-4-yl)amino)-2-methylpropanoic acid]: the IC50 was less than 10 nM.

In the case of `Cc1c(NC(=O)c2ccc(CN3CC[C@@H](O)C3)cn2)cccc1-c1cccc(NC(=O)c2cc3n(n2)CCCC3NCCO)c1C` (stereo partly drawn) [Compound 91, 4-((2-hydroxyethyl)amino)-N-(3'-(5-(((R)-3-hydroxypyrrolidin-1-yl)methyl)picolinamido)-2,2'-dimethyl-[1,1'-biphenyl]-3-yl)-4,5,6,7-tetrahydropyrazolo[1,5-a]pyridine-2-carboxamide], the IC50 was less than 10 nM.

`Cc1c(NC(=O)c2ccc(CN3CC[C@@H](O)C3)cn2)cccc1-c1cccc(NC(=O)c2cc3n(n2)CCCC3N2CC[C@@H](O)C2)c1C` (stereo partly drawn) [Compound 92, 4-((R)-3-hydroxypyrrolidin-1-yl)-N-(3'-(5-(((R)-3-hydroxypyrrolidin-1-yl)methyl)picolinamido)-2,2'-dimethyl-[1,1'-biphenyl]-3-yl)-4,5,6,7-tetrahydropyrazolo[1,5-a]pyridine-2-carboxamide]: the IC50 was less than 10 nM.

Consider `Cc1c(NC(=O)c2ccc(CN3CC[C@@H](O)C3)cn2)cccc1-c1cccc(NC(=O)c2cc3n(n2)CCCC3NC[C@@H]2CCC(=O)N2)c1C` (stereo partly drawn) [Compound 93, N-(3'-(5-(((R)-3-hydroxypyrrolidin-1-yl)methyl)picolinamido)-2,2'-dimethyl-[1,1'-biphenyl]-3-yl)-4-((((S)-5-oxopyrrolidin-2-yl)methyl)amino)-4,5,6,7-tetrahydropyrazolo[1,5-a]pyridine-2-carboxamide], for which the IC50 was less than 10 nM.

`CC(=O)NCCNC1CCCn2nc(C(=O)Nc3cccc(-c4cccc(NC(=O)c5ccc(CN6CC[C@@H](O)C6)cn5)c4C)c3C)cc21` (stereo partly drawn) [Compound 94, 4-((2-acetamidoethyl)amino)-N-(3'-(5-(((R)-3-hydroxypyrrolidin-1-yl)methyl)picolinamido)-2,2'-dimethyl-[1,1'-biphenyl]-3-yl)-4,5,6,7-tetrahydropyrazolo[1,5-a]pyridine-2-carboxamide]: the IC50 is less than 10 nM.

As to `Cc1c(NC(=O)c2ccc(CN3CC[C@@H](O)C3)cn2)cccc1-c1cccc(NC(=O)c2cc3n(n2)CCCC3NCC(=O)O)c1C` (stereo partly drawn) [Compound 95, 2-((2-((3'-(5-(((R)-3-hydroxypyrrolidin-1-yl)methyl)picolinamido)-2,2'-dimethyl-[1,1'-biphenyl]-3-yl)carbamoyl)-4,5,6,7-tetrahydropyrazolo[1,5-a]pyridin-4-yl)amino)acetic acid], the IC50 is less than 10 nM.

Regarding `Cc1c(NC(=O)c2ccc(CN3CC[C@@H](O)C3)cn2)cccc1-c1cccc(NC(=O)c2cc3n(n2)CCCC3N2CC[C@@H](C(=O)O)C2)c1C` (stereo partly drawn) [Compound 96, (3R)-1-(2-((3'-(5-(((R)-3-hydroxypyrrolidin-1-yl)methyl)picolinamido)-2,2'-dimethyl-[1,1'-biphenyl]-3-yl)carbamoyl)-4,5,6,7-tetrahydropyrazolo[1,5-a]pyridin-4-yl)pyrrolidine-3-carboxylic acid], the IC50 was less than 10 nM.

`O=C(Nc1cccc(-c2cccc(Nc3nccc4cc(CN5CC[C@H](O)C5)cnc34)c2Cl)c1Cl)c1cc2n(n1)CCCC2N1CCC(O)CC1` (stereo partly drawn) [Compound 97, N-(2,2'-dichloro-3'-((3-(((S)-3-hydroxypyrrolidin-1-yl)methyl)-1,7-naphthyridin-8-yl)amino)-[1,1'-biphenyl]-3-yl)-4-(4-hydroxypiperidin-1-yl)-4,5,6,7-tetrahydropyrazolo[1,5-a]pyridine-2-carboxamide]: the IC50 was less than 10 nM.

For the compound `Cc1c(NC(=O)c2ccc(CN3CC[C@@H](O)C3)cn2)cccc1-c1cccc(NC(=O)c2cc3n(n2)CCCC3N2CCC(C(=O)O)CC2)c1C` (stereo partly drawn) [Compound 98, 1-(2-((3'-(5-(((R)-3-hydroxypyrrolidin-1-yl)methyl)picolinamido)-2,2'-dimethyl-[1,1'-biphenyl]-3-yl)carbamoyl)-4,5,6,7-tetrahydropyrazolo[1,5-a]pyridin-4-yl)piperidine-4-carboxylic acid], the IC50 was less than 10 nM.

Regarding `Cc1c(NC(=O)c2ccc(CN3CC[C@@H](O)C3)cn2)cccc1-c1cccc(NC(=O)c2cc3n(n2)CCCC3NC(C)(C)C(=O)O)c1C` (stereo partly drawn) [Compound 99, 2-((2-((3'-(5-(((R)-3-hydroxypyrrolidin-1-yl)methyl)picolinamido)-2,2'-dimethyl-[1,1'-biphenyl]-3-yl)carbamoyl)-4,5,6,7-tetrahydropyrazolo[1,5-a]pyridin-4-yl)amino)-2-methylpropanoic acid], the IC50 was less than 10 nM.

Regarding `O=C(Nc1cccc(-c2cccc(NC(=O)c3cc4n(n3)CCCC4NCCO)c2Cl)c1Cl)c1ccc(CN2CC[C@@H](O)C2)cn1` (stereo partly drawn) [Compound 100, N-(2,2'-dichloro-3'-(5-(((R)-3-hydroxypyrrolidin-1-yl)methyl)picolinamido)-[1,1'-biphenyl]-3-yl)-4-((2-hydroxyethyl)amino)-4,5,6,7-tetrahydropyrazolo[1,5-a]pyridine-2-carboxamide], the IC50 was less than 10 nM.

As a reminder, the IC50 is the concentration at which inhibition is half-maximal.
